# According to paper PMC11062922 (Nature Chemical Biology, 2023):
# How the values were obtained:
# CDKL5 = molecular target: T1, CDKL5 (Homo sapiens, UniProt O76039); experiment: Kinobeads competition binding: CDKL5; details: target CDKL5
# T1 construct: endogenous in cells
# T1 sequence (O76039 1-960): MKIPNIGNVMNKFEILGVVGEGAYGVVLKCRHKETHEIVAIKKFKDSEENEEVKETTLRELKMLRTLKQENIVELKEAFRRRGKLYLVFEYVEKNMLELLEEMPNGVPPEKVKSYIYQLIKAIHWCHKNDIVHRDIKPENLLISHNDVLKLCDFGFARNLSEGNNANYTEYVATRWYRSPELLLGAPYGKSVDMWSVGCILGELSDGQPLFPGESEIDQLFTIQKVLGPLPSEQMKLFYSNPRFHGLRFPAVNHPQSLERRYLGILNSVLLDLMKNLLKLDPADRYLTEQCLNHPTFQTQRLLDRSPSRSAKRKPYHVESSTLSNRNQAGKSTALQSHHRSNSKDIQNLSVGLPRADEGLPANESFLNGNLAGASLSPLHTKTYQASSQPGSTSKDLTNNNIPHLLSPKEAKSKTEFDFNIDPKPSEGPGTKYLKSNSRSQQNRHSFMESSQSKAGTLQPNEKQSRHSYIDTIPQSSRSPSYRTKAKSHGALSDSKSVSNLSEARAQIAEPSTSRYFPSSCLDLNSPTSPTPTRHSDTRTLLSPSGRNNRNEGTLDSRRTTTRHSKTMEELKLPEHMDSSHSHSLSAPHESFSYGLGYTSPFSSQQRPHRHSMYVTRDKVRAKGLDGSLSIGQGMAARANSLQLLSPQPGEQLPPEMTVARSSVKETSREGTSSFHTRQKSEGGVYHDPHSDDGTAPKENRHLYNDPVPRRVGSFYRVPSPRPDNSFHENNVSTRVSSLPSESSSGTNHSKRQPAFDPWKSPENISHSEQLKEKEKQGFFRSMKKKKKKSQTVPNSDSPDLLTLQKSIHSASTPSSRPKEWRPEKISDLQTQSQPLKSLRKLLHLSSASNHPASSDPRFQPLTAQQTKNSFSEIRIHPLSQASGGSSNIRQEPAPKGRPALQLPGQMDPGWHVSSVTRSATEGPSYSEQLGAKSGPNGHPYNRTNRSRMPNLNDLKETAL
# Description: Supplement 41589_2023_1459_MOESM4_ESM.xlsx, sheet "CATDS matrix" | column: CDKL5
# EPHA5 = molecular target: T2, EPHA5 (Homo sapiens, UniProt P54756); experiment: Kinobeads competition binding: EPHA5; details: target EPHA5
# T2 construct: endogenous in cells
# Description: Supplement 41589_2023_1459_MOESM4_ESM.xlsx, sheet "CATDS matrix" | column: EPHA5
# EPHB3 = molecular target: T3, EPHB3 (Homo sapiens, UniProt P54753); experiment: Kinobeads competition binding: EPHB3; details: target EPHB3
# T3 construct: endogenous in cells
# T3 sequence (P54753 34-998): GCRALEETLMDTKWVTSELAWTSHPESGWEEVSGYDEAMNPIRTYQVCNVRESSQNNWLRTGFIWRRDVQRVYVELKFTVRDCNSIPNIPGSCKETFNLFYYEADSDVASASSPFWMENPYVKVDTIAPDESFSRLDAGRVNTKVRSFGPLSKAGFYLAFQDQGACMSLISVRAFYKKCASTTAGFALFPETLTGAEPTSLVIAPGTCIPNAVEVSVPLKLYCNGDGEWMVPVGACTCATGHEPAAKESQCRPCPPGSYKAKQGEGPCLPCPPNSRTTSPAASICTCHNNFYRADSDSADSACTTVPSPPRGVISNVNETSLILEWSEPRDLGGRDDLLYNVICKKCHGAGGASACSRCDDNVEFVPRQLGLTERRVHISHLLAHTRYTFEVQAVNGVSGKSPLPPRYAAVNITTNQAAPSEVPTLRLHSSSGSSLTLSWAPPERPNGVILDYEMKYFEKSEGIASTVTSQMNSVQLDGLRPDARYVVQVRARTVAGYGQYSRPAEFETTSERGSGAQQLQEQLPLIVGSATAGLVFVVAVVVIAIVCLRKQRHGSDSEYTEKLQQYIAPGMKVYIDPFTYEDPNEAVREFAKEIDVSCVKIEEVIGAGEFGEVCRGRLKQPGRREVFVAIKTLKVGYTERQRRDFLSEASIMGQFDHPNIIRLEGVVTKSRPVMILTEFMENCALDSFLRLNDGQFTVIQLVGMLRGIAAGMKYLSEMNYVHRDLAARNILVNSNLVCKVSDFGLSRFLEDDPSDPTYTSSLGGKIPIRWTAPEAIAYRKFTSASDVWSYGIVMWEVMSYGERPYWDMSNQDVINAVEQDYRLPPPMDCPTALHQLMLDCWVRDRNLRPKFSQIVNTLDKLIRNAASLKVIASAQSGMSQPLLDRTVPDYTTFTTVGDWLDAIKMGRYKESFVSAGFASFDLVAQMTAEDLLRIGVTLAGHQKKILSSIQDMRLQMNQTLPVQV
# Description: Supplement 41589_2023_1459_MOESM4_ESM.xlsx, sheet "CATDS matrix" | column: EPHB3
# FGFR1 = molecular target: T4, FGFR1 (Homo sapiens, UniProt P11362); experiment: Kinobeads competition binding: FGFR1; details: target FGFR1
# T4 construct: endogenous in cells
# Description: Supplement 41589_2023_1459_MOESM4_ESM.xlsx, sheet "CATDS matrix" | column: FGFR1
# GSK3A = molecular target: T5, GSK3A (Homo sapiens, UniProt P49840); experiment: Kinobeads competition binding: GSK3A; details: target GSK3A
# T5 construct: endogenous in cells
# ICK = experiment: Kinobeads competition binding: ICK; design: species or system human; details: target ICK
# LCK = experiment: Kinobeads competition binding: LCK; design: species or system human; details: target LCK
# LIMK1 = experiment: Kinobeads competition binding: LIMK1; design: species or system human; details: target LIMK1
# MAPK3 = experiment: Kinobeads competition binding: MAPK3; design: species or system human; details: target MAPK3
# NEK9 = experiment: Kinobeads competition binding: NEK9; design: species or system human; details: target NEK9
# PAK6 = molecular target: T6, PAK6 (Homo sapiens, UniProt Q9NQU5); experiment: Kinobeads competition binding: PAK6; details: target PAK6
# T6 construct: a mixture of lysates from five cancer cell lines; endogenous in cells
# T6 sequence (Q9NQU5 whole entry): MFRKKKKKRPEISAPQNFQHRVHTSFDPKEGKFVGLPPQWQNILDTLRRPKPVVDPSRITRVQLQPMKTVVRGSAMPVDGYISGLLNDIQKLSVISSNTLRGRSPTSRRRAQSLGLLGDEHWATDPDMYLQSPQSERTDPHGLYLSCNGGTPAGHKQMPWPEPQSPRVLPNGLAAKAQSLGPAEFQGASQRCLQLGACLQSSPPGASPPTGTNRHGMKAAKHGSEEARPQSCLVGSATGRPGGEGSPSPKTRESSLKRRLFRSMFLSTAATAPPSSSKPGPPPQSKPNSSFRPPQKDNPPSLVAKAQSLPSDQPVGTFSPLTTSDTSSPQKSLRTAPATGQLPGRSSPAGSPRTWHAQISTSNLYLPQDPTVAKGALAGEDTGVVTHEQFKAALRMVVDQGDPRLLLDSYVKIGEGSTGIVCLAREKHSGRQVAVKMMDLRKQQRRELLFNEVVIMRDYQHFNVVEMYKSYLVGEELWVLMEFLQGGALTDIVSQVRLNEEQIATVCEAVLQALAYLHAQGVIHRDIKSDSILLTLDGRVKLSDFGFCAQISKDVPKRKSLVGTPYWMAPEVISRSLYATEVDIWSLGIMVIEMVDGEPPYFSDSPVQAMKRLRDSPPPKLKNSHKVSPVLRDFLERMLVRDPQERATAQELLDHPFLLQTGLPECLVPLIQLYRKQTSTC
# T5 sequence (P49840 whole entry): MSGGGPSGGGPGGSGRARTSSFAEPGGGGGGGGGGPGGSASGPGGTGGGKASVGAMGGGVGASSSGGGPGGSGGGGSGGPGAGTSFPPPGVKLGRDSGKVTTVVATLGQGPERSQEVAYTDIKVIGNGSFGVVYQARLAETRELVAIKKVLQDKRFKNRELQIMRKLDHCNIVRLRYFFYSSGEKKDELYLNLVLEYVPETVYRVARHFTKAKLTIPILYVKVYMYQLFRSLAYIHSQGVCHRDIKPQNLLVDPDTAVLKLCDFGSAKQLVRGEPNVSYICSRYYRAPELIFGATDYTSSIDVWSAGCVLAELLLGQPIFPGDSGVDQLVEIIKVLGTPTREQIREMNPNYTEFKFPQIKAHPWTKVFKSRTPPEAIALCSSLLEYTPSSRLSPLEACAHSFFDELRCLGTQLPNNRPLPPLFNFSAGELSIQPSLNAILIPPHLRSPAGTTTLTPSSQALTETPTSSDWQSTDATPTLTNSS
# T2 sequence (P54756 25-1037): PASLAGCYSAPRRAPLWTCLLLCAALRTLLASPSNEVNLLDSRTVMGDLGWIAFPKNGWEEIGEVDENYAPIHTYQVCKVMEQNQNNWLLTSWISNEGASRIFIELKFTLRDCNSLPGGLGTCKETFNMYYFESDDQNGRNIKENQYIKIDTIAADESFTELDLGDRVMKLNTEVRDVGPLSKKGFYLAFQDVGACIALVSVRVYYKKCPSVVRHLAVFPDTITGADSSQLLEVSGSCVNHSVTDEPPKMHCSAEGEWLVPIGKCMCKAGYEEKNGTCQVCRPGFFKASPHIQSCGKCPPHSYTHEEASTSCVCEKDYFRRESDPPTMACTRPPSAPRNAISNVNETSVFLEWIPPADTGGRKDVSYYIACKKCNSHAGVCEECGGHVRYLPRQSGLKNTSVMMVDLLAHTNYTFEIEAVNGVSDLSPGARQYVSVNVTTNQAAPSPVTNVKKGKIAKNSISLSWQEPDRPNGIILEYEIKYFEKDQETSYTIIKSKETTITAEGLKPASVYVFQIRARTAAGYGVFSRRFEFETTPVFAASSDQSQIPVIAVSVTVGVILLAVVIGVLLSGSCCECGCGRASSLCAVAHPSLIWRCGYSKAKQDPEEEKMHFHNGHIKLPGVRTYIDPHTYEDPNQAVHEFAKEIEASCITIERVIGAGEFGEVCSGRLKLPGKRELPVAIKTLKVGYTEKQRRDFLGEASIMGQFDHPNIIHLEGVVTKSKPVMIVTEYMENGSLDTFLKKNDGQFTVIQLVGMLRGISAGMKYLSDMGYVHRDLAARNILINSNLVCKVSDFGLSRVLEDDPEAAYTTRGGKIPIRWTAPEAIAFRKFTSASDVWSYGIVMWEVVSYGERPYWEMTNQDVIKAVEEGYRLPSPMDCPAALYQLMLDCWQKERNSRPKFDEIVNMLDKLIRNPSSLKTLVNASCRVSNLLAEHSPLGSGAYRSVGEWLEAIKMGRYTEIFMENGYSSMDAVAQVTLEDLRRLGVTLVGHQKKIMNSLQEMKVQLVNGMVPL
# T4 sequence (P11362 22-822): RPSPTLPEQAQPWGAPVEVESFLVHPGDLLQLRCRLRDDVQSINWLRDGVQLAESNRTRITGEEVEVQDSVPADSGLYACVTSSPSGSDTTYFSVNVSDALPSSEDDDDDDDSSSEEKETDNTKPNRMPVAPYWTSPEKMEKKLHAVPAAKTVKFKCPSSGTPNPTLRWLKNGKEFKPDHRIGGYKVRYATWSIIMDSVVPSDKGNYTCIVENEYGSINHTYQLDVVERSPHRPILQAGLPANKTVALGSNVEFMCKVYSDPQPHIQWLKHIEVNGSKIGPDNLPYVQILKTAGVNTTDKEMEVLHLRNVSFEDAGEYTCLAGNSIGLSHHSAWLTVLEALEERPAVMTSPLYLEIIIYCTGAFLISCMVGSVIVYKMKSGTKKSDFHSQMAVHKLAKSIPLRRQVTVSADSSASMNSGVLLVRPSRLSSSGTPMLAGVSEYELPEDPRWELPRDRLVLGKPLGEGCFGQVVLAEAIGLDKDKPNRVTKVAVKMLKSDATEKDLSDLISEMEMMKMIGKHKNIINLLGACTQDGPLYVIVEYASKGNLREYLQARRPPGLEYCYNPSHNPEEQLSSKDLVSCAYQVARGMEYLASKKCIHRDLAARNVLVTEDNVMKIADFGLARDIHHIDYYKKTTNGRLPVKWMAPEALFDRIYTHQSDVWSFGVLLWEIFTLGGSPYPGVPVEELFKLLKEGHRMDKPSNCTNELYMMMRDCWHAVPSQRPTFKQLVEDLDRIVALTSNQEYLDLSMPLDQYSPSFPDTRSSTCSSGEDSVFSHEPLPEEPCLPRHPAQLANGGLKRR
Compound,CATDS (CDKL5),CATDS (EPHA5),CATDS (EPHB3),CATDS (FGFR1),CATDS (GSK3A),CATDS (ICK),CATDS (LCK),CATDS (LIMK1),CATDS (MAPK3),CATDS (NEK9),CATDS (PAK6)
Nc1ncnc2[nH]c(-c3ccccc3)nc12 [AH5015_KCGS],0,0.02942,0,0,0.1015,0,0,0,0,0,0
CCc1cc2c(cc1N1CCC(N3CCOCC3)CC1)C(C)(C)c1[nH]c3cc(C#N)ccc3c1C2=O [Alectinib],0,0,0,0,0,0,0,0,0,0,0
CCN1CCN(Cc2ccc(Nc3ncc(F)c(-c4cc(F)c5nc(C)n(C(C)C)c5c4)n3)nc2)CC1 [Abemaciclib],0.6907,0,0,0,0.08929,0,0,0,0,0,0
CN(C)C/C=C/C(=O)Nc1cc2c(Nc3ccc(F)c(Cl)c3)ncnc2cc1O[C@H]1CCOC1 [Afatinib],0,0,0,0,0,,,,,,
N#CC1(c2ccc(NC(=O)c3cccnc3NCc3ccncc3)cc2)CCCC1 [Apatinib],0,0,0,0,0,0,0,0,0,0,0
